From PubChem BioAssay AID788 (SRMLSC, 2007)
Activity calls are given as the source filed them. The rule behind the calls is not given here.

How the values were obtained:
[1] = tested on: S. cerevisiae wild-type background strain growth inhibition; test: vps1Δ apl2Δ double mutant yeast growth inhibitors – S. cerevisiae, background strain comparison, post-Golgi transport modulator project, dose response (AID 788); details: S. cerevisiae vps1Δ apl2Δ growth inhibition, dose response; measured here: wild-type background strain growth
[2] = tested on: S. cerevisiae vps1Δ apl2Δ growth inhibition, dose response; test: as above

SMILES | IC50 [1] | IC50 [2]
Cc1cccc(CS(=O)(=O)Cc2ccc(C(=O)NCCCN3CCCC3)o2)c1 | > 10 µM | > 10 µM (inactive)
CCOC(=O)c1c(-n2c(C)cc(C=C3C(=O)NC(=S)NC3=O)c2C)sc2c1CCCC2 | 11.5 µM | > 10 µM (inactive)
CCN1C(=O)c2ccc(C(=O)NCc3ccccc3)cc2C1=O | > 10 µM | > 10 µM (inactive)
C=CCc1ccccc1OCC(O)CN1CCN(Cc2ccc3c(c2)OCO3)CC1 (centres undefined) | > 10 µM | 4.4 µM
CN1/C(=C/C2CC(=O)NC2=O)C(C)(C)c2ccccc21 (centres undefined) | > 10 µM | > 10 µM (inactive)
OC(COCc1ccc(Cl)cc1)CN1CC=C(c2ccccc2)CC1 (centres undefined) | 20.8 µM | 4.71 µM
Cn1nnc2cc(C(=O)Nc3cccnc3)ccc21 | > 10 µM | > 10 µM (inactive)
O=C(NCC(c1cccnc1)N1CCN(c2ccccc2)CC1)C1CCCCC1 (centres undefined) | > 10 µM | > 10 µM (inactive)
Cc1cc(C)n2nc(C(=O)NCc3ccccc3)cc2n1 | > 10 µM | > 10 µM (inactive)
CCOC(=O)C1=C(N)N2C(=O)C(C)SC2=C(C(=O)OC)C1c1ccccc1OC (centres undefined) | 0.163 µM | 
Cc1ccc(Cl)c(OCCCCN(C)Cc2ccccc2)c1 | > 10 µM | 3.13 µM
Cc1ccc(SC(C)C(=O)Nc2ncn[nH]2)cc1 (centres undefined) | > 10 µM | > 10 µM (inactive)
Cc1ccc(/C=N/n2cnc3sc(-c4ccccc4)cc3c2=O)o1 | > 10 µM | > 10 µM (inactive)
Cn1c(=O)cc(NCc2ccccc2)[nH]c1=O | > 10 µM | > 10 µM (inactive)
C=CCc1ccc(OCC(O)CN2CCC(Cc3ccccc3)CC2)c(OC)c1 (centres undefined) | 19.1 µM | 4.2 µM
CCc1ccc(C(=O)/C=C/c2ccc([N+](=O)[O-])o2)cc1 | 20.7 µM | 23.1 µM (inactive)
O=C(NC1CCCC1)C(c1ccsc1)N(C(=O)Cc1cccs1)c1ccc(F)cc1 (centres undefined) | > 10 µM | > 10 µM (inactive)
C/C(=N\N=C(/N)SC1CC(=O)N(c2ccc(Cl)c(Cl)c2)C1=O)c1cccs1 (centres undefined) | 5.98 µM | 5.05 µM
c1coc(CNc2nc(N3CCCCC3)nc3ccccc23)c1 | > 10 µM | > 10 µM (inactive)
Cc1ccc(N2CCN(S(=O)(=O)N3CCCCCC3)CC2)cc1Cl | > 10 µM | > 10 µM (inactive)
Fc1ccc(-c2noc(C3CCN(Cc4cccnc4)CC3)n2)cc1 | > 10 µM | 6.05 µM
COc1ccc(C2C3=C(CCCC3=O)Nc3nc(-c4cc(OC)c(OC)c(OC)c4)nn32)cc1OC (centres undefined) | > 10 µM | > 10 µM (inactive)
NC(=O)c1c(NC(=O)CN2C(=O)CCC2=O)sc2c1CCCCC2 | > 10 µM | > 10 µM (inactive)

SMILES | IC50 [1] | IC50 [2]
COc1cccc(C(=O)N2CCN(C3CCC(c4ccccc4)CC3)CC2)c1OC (centres undefined) | 23.9 µM | 5.37 µM
CCOC(=O)C(NC(C)=O)(Nc1ccc(S(=O)(=O)Nc2onc(C)c2C)cc1)C(F)(F)F (centres undefined) | > 10 µM | > 10 µM (inactive)
CCOC(=O)c1ccc(NC(=O)c2cn(-c3ccccc3)nc2-c2ccncc2)cc1 | 11.5 µM | 19.1 µM (inactive)
O=C(OCn1ncc(Cl)c(Cl)c1=O)c1ccccc1Cl | 16.6 µM | 15.5 µM
COc1cccc(NC(=O)C2CCCN2C(=O)OCc2ccccc2)c1 (centres undefined) | > 10 µM | > 10 µM (inactive)
CCOC(=O)Cc1c(C)c2ccc(N(CC)CC)cc2oc1=O | > 10 µM | > 10 µM (inactive)
N=c1c2c(-c3ccccc3)c(-c3ccccc3)n(Cc3ccco3)c2ncn1Cc1ccccc1 |  | 18.9 µM
CCN(CC)CCCN(Cc1cc2cc3c(cc2[nH]c1=O)OCCO3)C(=O)Nc1ccc(F)cc1 | > 10 µM | > 10 µM (inactive)
CCc1ccc(N(C(=O)c2csnn2)C(C(=O)NC(C)(C)C)c2ccncc2)cc1 (centres undefined) | > 10 µM | > 10 µM (inactive)
Cc1cccc(-c2c3c(=O)n(C)c(=O)n(C)c3cn2C2CCCCC2)c1 | > 10 µM | > 10 µM (inactive)
N#Cc1ccccc1Cn1cc(C(=O)c2cccs2)c2ccccc21 |  | > 10 µM (inactive)
CCC(=O)c1ccc(N2CCN(C(=O)c3ccc(Br)cc3)CC2)c(F)c1 | > 10 µM | 25 µM
O=C(c1ccco1)N1CCN=C1SCc1cccnc1 | > 10 µM | > 10 µM (inactive)
O=[N+]([O-])c1ccc(N/N=C/c2c[nH]c3ccccc23)c(S(=O)(=O)Nc2ccc(Cl)cc2)c1 | 2.5 µM | 2.15 µM
O=C(OCn1ncc(Br)c(Br)c1=O)c1ccccc1Cl |  | 21 µM
N#CC1=C(N)C(C#N)(C#N)C(c2cccnc2)C2CC(c3ccccc3)CC=C12 (centres undefined) | 2.97 µM | 2.89 µM
O=C(NCC(c1cccnc1)N1CCN(c2ccc(F)cc2)CC1)OCc1ccccc1 (centres undefined) |  | 22.9 µM
Cc1ccc2nc(C)cc(OCC(=O)O)c2c1 | > 10 µM | > 10 µM (inactive)
O=C(Nc1cccc(Cl)c1)N1CCN(C/C=C/c2ccccc2)CC1 | > 10 µM | > 10 µM (inactive)
COCCCn1c2nc3ccccc3nc2c2c(=O)n(-c3ccccc3OC)cnc21 | > 10 µM | > 10 µM (inactive)
O=C(Cn1ncc2c3ccccc3n(Cc3ccccc3F)c2c1=O)N1CCC2(CC1)OCCO2 | > 10 µM | > 10 µM (inactive)
Clc1ccc(-c2n[nH]c3c2CCC3)cc1Cl | 1.81 µM | 2.65 µM (inactive)
c1ccc(COc2ccc(CN3CCN(c4ccccn4)CC3)cc2)cc1 | > 10 µM | > 10 µM (inactive)

SMILES | IC50 [1] | IC50 [2]
Nc1ccc(Oc2ccc3nc(-c4ccccc4)c(-c4ccccc4)nc3c2)cc1 | 1.21 µM | 1.2 µM (inactive)
COc1ccc2nc(NCCCNC(=O)c3cc(OC)c(OC)c(OC)c3)c(C#N)cc2c1 | > 10 µM | > 10 µM (inactive)
COc1ccc(NC(=O)c2ccc(CN3CCN(c4ccccc4)CC3)cc2)cc1 | > 10 µM | > 10 µM (inactive)
c1ccc(-c2ccc(-c3cnc4n3CCCCC4)cc2)cc1 | > 10 µM | > 10 µM (inactive)
COc1ccc(Nc2nc(N)nc(CSc3nnc(N)s3)n2)cc1 | > 10 µM | > 10 µM (inactive)
C=CCc1ccc(OCCCCN2CC(C)OC(C)C2)c(OC)c1 (centres undefined) | > 10 µM | 2.33 µM
O=C1c2cccc3c([N+](=O)[O-])ccc(c23)C(=O)N1c1ccc(Cl)cn1 | 6.08 µM | 18 µM (inactive)
O=C(Nc1ccccc1)C1=C(O)CC(c2ccco2)CC1=Nc1ccccc1 (centres undefined) | > 10 µM | 
Cc1ccc(S(=O)(=O)NC(CC(C)C)C(=O)Oc2ccc3c4c(c(=O)oc3c2)CCC4)cc1 (centres undefined) | > 10 µM | > 10 µM (inactive)
N#Cc1cn(-c2ccccc2)nc1-c1cc2ccccc2oc1=O | > 10 µM | > 10 µM (inactive)
O=Cc1cc2ccccc2nc1SCc1ccc(Cl)cc1 | > 10 µM | > 10 µM (inactive)
COCCCNc1ccnc2c(Cl)cccc12 | > 10 µM | > 10 µM (inactive)
CCOc1ccc(NC(=O)C/C(N)=N/O)cc1 | > 10 µM | > 10 µM (inactive)
CCCn1c(SCc2cc(=O)oc3ccc4ccccc4c23)n[nH]c1=O | > 10 µM | > 10 µM (inactive)
Cc1ccc(C(=O)Nc2ccc(Cc3ccncc3)cc2)cc1[N+](=O)[O-] |  | 23.4 µM
O=C(C1CCCN(S(=O)(=O)c2ccc(Cl)cc2)C1)N(Cc1cccs1)C1CC1 (centres undefined) |  | > 10 µM (inactive)
CCCCCCOc1ccc(CN2CCN(CCO)CC2)cc1 |  | 5.19 µM
O=C(NC1CCN(Cc2ccccc2)CC1)C1COc2ccccc2O1 (centres undefined) | > 10 µM | 
C=C(C)COc1ccc(-c2ncncc2Oc2ccc(OC)cc2)c(O)c1 | > 10 µM | 
Cc1c(Cl)c([N+](=O)[O-])nn1Cc1ccc(C(=O)N/N=C\c2cccc(Br)c2)o1 | > 10 µM | 
Cc1nnc(-c2cccc(Br)c2)c2cn(-c3ccccc3)nc12 | > 10 µM | 
O=C(Nc1nnc(-c2ccc(Cl)cc2)o1)c1ccccc1Br | 13.1 µM | 
O=C1C=C(c2ccccc2)C(=O)N1Nc1ccccc1 |  | 20 µM

SMILES | IC50 [1] | IC50 [2]
CCOc1nc(SCCOc2ccccc2)nc(N(C)C)n1 |  | > 10 µM (inactive)
COc1ccc(OCCSc2nnc3sc4ccccc4n23)cc1 |  | > 10 µM (inactive)
CCOc1cc(/C=C\[N+](=O)[O-])ccc1OCC(=O)Nc1ccccc1C | > 10 µM | 
O=C(CN1CCN(c2ccccn2)CC1)Nc1ccc(Oc2ccccc2)cc1 |  | > 10 µM (inactive)
Cc1[nH]nc(N=CC2=C(O)CC(C)(C)CC2=O)c1-c1ccc(Cl)cc1 |  | > 10 µM (inactive)
CC1CCN(S(=O)(=O)c2ccc(NC(=O)CCN3C(=O)c4ccccc4C3=O)cc2)CC1 |  | > 10 µM (inactive)
CCCCC(=O)Nc1nc(C)c(-c2csc(Nc3ccc(Cl)cc3)n2)s1 | 6.26 µM | 
CC(Sc1ccsc1[N+](=O)[O-])C(=O)NCCc1ccc(Cl)cc1 (centres undefined) |  | > 10 µM (inactive)
O=S1(=O)C=C(Sc2nc3ccccc3s2)c2ccccc21 |  | > 10 µM (inactive)
CC12CCC(c3c(C(=O)Nc4nccs4)nn(-c4ccccc4)c31)C2(C)C (centres undefined) |  | > 10 µM (inactive)
CC(C)c1ccc(C(=O)CSc2n[nH]c(-c3ccncc3)n2)cc1 |  | 5.64 µM
O=S(=O)(Cc1ccccc1Cl)N1CCN(Cc2ccc3c(c2)OCO3)CC1 |  | 9.91 µM
CC(c1nnc(SCn2nnc3ccccc3c2=O)n1-c1ccc(Cl)cc1)N(C)C (centres undefined) |  | 2.16 µM
O=C(NCC1COc2ccccc2O1)c1ccc(Cl)cc1 (centres undefined) |  | 1.32 µM
CCOc1ccc(NC(=O)N(C2CCCCC2)C(C)c2cccnc2)cc1 (centres undefined) |  | 15 µM
Cc1cccc(-c2nnc(-c3cccc(NC(=O)Cc4cccs4)c3)o2)c1 | 15.2 µM | 
c1ccc2c(c1)oc1c(Nc3ccc(CN4CCOCC4)cc3)ncnc12 | > 10 µM | 
O=[N+]([O-])c1cc(Cl)cc(/C=N\Nc2ccccn2)c1O |  | 9.68 µM
CC1CCC(C(C)C)C(OCC(O)CN2CCN(Cc3ccccc3)CC2)C1 (centres undefined) |  | 4.77 µM
CC1CC(C)CN(CC(C)(C)NS(=O)(=O)c2ccc(Cl)cc2)C1 (centres undefined) | > 10 µM | 
Cc1cc(NCCCN2CCOCC2)n2ncc(-c3ccc(Cl)cc3)c2n1 | > 10 µM | 
